Results taken from patent US20150105252A1, “SUBSTITUTED PYRAZOLES AS HERBICIDES” (E I DU PONT DE NEMOURS AND COMPANY, priority 2013, published 2015).

Tests used:
[1] = tested on: wheat; assay: Test A postemergence; assay type: in vivo, Triticum aestivum
Outline: (§1)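 Ratings express plant response from 0 (no effect) to 100 (complete control), judged visually against untreated controls after approximately 10 days in the greenhouse. Preemergence applications were made as directed soil sprays onto seeded loam–sand mix, and postemergence applications onto 2–10 cm plants at one- to two-leaf stage.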

[2] = tested on: barnyardgrass; assay: Test B flood; assay type: in vivo, Echinochloa crus-galli; settings: 250 g ai/ha, visual rating on 0 to 100 scale (0 no effect, 100 complete control), 13 to 15 days
Outline: (§2)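 Visual ratings (0 = no effect, 100 = complete control) versus untreated controls were taken 13–15 days after treatment of greenhouse plants. Treatment was added to paddy water held at 3 cm depth on 2-leaf-stage seedlings.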

[3] = tested on: sedge, umbrella; assay: Test B flood; assay type: in vivo, Cyperus difformis; settings: 250 g ai/ha, visual rating on 0 to 100 scale (0 no effect, 100 complete control), 13 to 15 days
Outline: as §2

[4] = tested on: foxtail, giant; assay: Test A preemergence; assay type: in vivo, Setaria faberii; settings: preemergence; for Foxtail, Giant plant response rating (0 to 100 scale): 125 g ai/ha, visual injury approx. 10 days after treatment; for Foxtail, Giant plant response rating: 500 g ai/ha, visual injury after approx. 10 days, 0 to 100 scale (0 no effect, 100 complete control)
Outline: as §1

[5] = tested on: foxtail, giant; assay: Test A postemergence; assay type: in vivo, Setaria faberii
Outline: as §1

[6] = tested on: wheat; assay: Test A preemergence; assay type: in vivo, Triticum aestivum; settings: preemergence; for Wheat plant response rating (0 to 100 scale): 125 g ai/ha, visual injury approx. 10 days after treatment; for Wheat plant response rating: 500 g ai/ha, visual injury after approx. 10 days, 0 to 100 scale (0 no effect, 100 complete control)
Outline: as §1

[7] = tested on: morningglory; assay: Test A preemergence; assay type: in vivo, Ipomoea spp.; settings: preemergence; for Morningglory plant response rating (0 to 100 scale): 125 g ai/ha, visual injury approx. 10 days after treatment; for Morningglory plant response rating: 500 g ai/ha, visual injury after approx. 10 days, 0 to 100 scale (0 no effect, 100 complete control)
Outline: as §1

[8] = tested on: corn; assay: Test A preemergence; assay type: in vivo, Zea mays; settings: preemergence; for Corn plant response rating (0 to 100 scale): 125 g ai/ha, visual injury approx. 10 days after treatment; for Corn plant response rating: 500 g ai/ha, visual injury after approx. 10 days, 0 to 100 scale (0 no effect, 100 complete control)
Outline: as §1

[9] = tested on: ducksalad; assay: Test B flood; assay type: in vivo, Heteranthera limosa; settings: 250 g ai/ha, visual rating on 0 to 100 scale (0 no effect, 100 complete control), 13 to 15 days
Outline: as §2

[10] = tested on: crabgrass, large; assay: Test A postemergence; assay type: in vivo, Digitaria sanguinalis
Outline: as §1

[11] = tested on: velvetleaf; assay: Test A preemergence; assay type: in vivo, Abutilon theophrasti; settings: preemergence; for Velvetleaf plant response rating (0 to 100 scale): 125 g ai/ha, visual injury approx. 10 days after treatment; for Velvetleaf plant response rating: 500 g ai/ha, visual injury after approx. 10 days, 0 to 100 scale (0 no effect, 100 complete control)
Outline: as §1

[12] = tested on: corn; assay: Test A postemergence; assay type: in vivo, Zea mays
Outline: as §1

[13] = tested on: barnyardgrass; assay: Test A postemergence; assay type: in vivo, Echinochloa crus-galli
Outline: as §1

[14] = tested on: morningglory; assay: Test A postemergence; assay type: in vivo, Ipomoea spp.
Outline: as §1

[15] = tested on: pigweed; assay: Test A preemergence; assay type: in vivo, Amaranthus retroflexus; settings: preemergence; for Pigweed plant response rating (0 to 100 scale): 125 g ai/ha, visual injury approx. 10 days after treatment; for Pigweed plant response rating: 500 g ai/ha, visual injury after approx. 10 days, 0 to 100 scale (0 no effect, 100 complete control)
Outline: as §1

[16] = tested on: pigweed; assay: Test A postemergence; assay type: in vivo, Amaranthus retroflexus
Outline: as §1

[17] = tested on: crabgrass, large; assay: Test A preemergence; assay type: in vivo, Digitaria sanguinalis; settings: preemergence; for Crabgrass, Large plant response rating (0 to 100 scale): 125 g ai/ha, visual injury approx. 10 days after treatment; for Crabgrass, Large plant response rating: 500 g ai/ha, visual injury after approx. 10 days, 0 to 100 scale (0 no effect, 100 complete control)
Outline: as §1

[18] = tested on: velvetleaf; assay: Test A postemergence; assay type: in vivo, Abutilon theophrasti
Outline: as §1

[19] = tested on: rice; assay: Test B flood; assay type: in vivo, Oryza sativa; settings: 250 g ai/ha, visual rating on 0 to 100 scale (0 no effect, 100 complete control), 13 to 15 days
Outline: as §2

[20] = tested on: barnyardgrass; assay: Test A preemergence; assay type: in vivo, Echinochloa crus-galli; settings: preemergence
Outline: as §1

[21] = Postemergence, 500 g ai/ha, 0 to 100 scale (0 no effect, 100 complete control)
[22] = postemergence, 125 g ai/ha, about 10 days, visual rating on 0 to 100 scale (0 no effect, 100 complete control)
[23] = 125 g ai/ha, visual injury, 0 to 100 scale, approx. 10 days
[24] = 500 g ai/ha, visual injury after approx. 10 days, 0 to 100 scale (0 no effect, 100 complete control)

Compound | Wheat plant response rating [1, 21] | Plant response rating, Barnyardgrass [2] | Plant response rating, Sedge, Umbrella [3] | Foxtail, Giant plant response rating (0 to 100 scale) [4] | Foxtail, Giant plant response rating [4] | Foxtail, Giant plant response rating [5, 21] | Foxtail, Giant plant response rating [5, 22] | Wheat plant response rating (0 to 100 scale) [6] | Wheat plant response rating [6] | Morningglory plant response rating (0 to 100 scale) [7] | Morningglory plant response rating [7] | Corn plant response rating (0 to 100 scale) [8] | Corn plant response rating [8] | Plant response rating, Ducksalad [9] | Crabgrass, Large plant response rating [10, 21] | Crabgrass, Large plant response rating [10, 22] | Velvetleaf plant response rating (0 to 100 scale) [11] | Velvetleaf plant response rating [11] | Corn plant response rating [12, 21] | Corn plant response rating [12, 22] | also measured
CCCNC(=O)c1cc(CC)n(Cc2nc(C(F)(F)F)no2)n1 [Compound 164] | 20 | 0 | 0 | 10 | 70 | 40 | 10 | 0 | 20 | 0 | 80 | 0 | 50 | 0 | 60 | 10 | 0 | 10 | 40 | 10 | Wheat plant response rating [1, 22]: 0; Barnyardgrass plant response rating [13, 21]: 40; Barnyardgrass plant response rating [13, 22]: 10; Morningglory plant response rating [14, 21]: 70; Morningglory plant response rating [14, 22]: 50; Pigweed plant response rating (0 to 100 scale) [15]: 20; Pigweed plant response rating [15]: 80; Pigweed plant response rating [16, 21]: 40; Pigweed plant response rating [16, 22]: 20; Crabgrass, Large plant response rating (0 to 100 scale) [17]: 80; Crabgrass, Large plant response rating [17]: 90; Velvetleaf plant response rating [18, 21]: 60; Velvetleaf plant response rating [18, 22]: 20; Plant response rating, Rice [19]: 0; Barnyardgrass plant response rating [20, 23]: 10; Barnyardgrass plant response rating [20, 24]: 80
CCc1cc(-c2ccc(C(F)(F)F)cc2)nn1C(=O)c1ccnc(C(F)(F)F)c1 [Compound 165] | 10 | 0 | 0 | 0 | 0 | 10 | 10 | 0 | 0 | 0 | 0 | 0 | 0 | 0 | 20 | 10 | 0 | 0 | 10 | 10 | Wheat plant response rating [1, 22]: 0; Barnyardgrass plant response rating [13, 21]: 10; Barnyardgrass plant response rating [13, 22]: 10; Morningglory plant response rating [14, 21]: 20; Morningglory plant response rating [14, 22]: 10; Pigweed plant response rating (0 to 100 scale) [15]: 10; Pigweed plant response rating [15]: 20; Pigweed plant response rating [16, 21]: 80; Pigweed plant response rating [16, 22]: 30; Crabgrass, Large plant response rating (0 to 100 scale) [17]: 0; Crabgrass, Large plant response rating [17]: 0; Velvetleaf plant response rating [18, 21]: 20; Velvetleaf plant response rating [18, 22]: 10; Plant response rating, Rice [19]: 0; Barnyardgrass plant response rating [20, 23]: 0; Barnyardgrass plant response rating [20, 24]: 0
CCCCNC(=O)c1cc(Cl)n(Cc2cccc(C(F)(F)F)c2)n1 [Compound 171] | 0 | 0 | 0 | 0 | 0 | 20 | 10 | 0 | 0 | 0 | 0 | 0 | 0 | 0 | 30 | 10 | 0 | 0 | 20 | 0 | Wheat plant response rating [1, 22]: 0; Barnyardgrass plant response rating [13, 21]: 20; Barnyardgrass plant response rating [13, 22]: 0; Morningglory plant response rating [14, 21]: 30; Morningglory plant response rating [14, 22]: 0; Pigweed plant response rating (0 to 100 scale) [15]: 0; Pigweed plant response rating [15]: 0; Pigweed plant response rating [16, 21]: 50; Pigweed plant response rating [16, 22]: 20; Crabgrass, Large plant response rating (0 to 100 scale) [17]: 0; Crabgrass, Large plant response rating [17]: 0; Velvetleaf plant response rating [18, 21]: 30; Velvetleaf plant response rating [18, 22]: 20; Plant response rating, Rice [19]: 0; Barnyardgrass plant response rating [20, 23]: 0; Barnyardgrass plant response rating [20, 24]: 0
O=C(NC1CC1)c1cc(Cl)n(Cc2cccc(C(F)(F)F)c2)n1 [Compound 174] | 0 | 0 | 0 | 0 | 20 | 0 | 0 | 0 | 0 | 0 | 0 | 0 | 0 | 0 | 10 | 0 | 0 | 0 | 10 | 0 | Wheat plant response rating [1, 22]: 0; Barnyardgrass plant response rating [13, 21]: 10; Barnyardgrass plant response rating [13, 22]: 0; Morningglory plant response rating [14, 21]: 10; Morningglory plant response rating [14, 22]: 0; Pigweed plant response rating (0 to 100 scale) [15]: 20; Pigweed plant response rating [15]: 90; Pigweed plant response rating [16, 21]: 90; Pigweed plant response rating [16, 22]: 20; Crabgrass, Large plant response rating (0 to 100 scale) [17]: 10; Crabgrass, Large plant response rating [17]: 40; Velvetleaf plant response rating [18, 21]: 10; Velvetleaf plant response rating [18, 22]: 0; Plant response rating, Rice [19]: 0; Barnyardgrass plant response rating [20, 23]: 0; Barnyardgrass plant response rating [20, 24]: 0
O=C(NCC(F)(F)F)c1cc(I)n(Cc2cccc(C(F)(F)F)c2)n1 [Compound 181] | 0 | 0 | 40 | 0 | 20 | 10 | 0 | 0 | 0 | 0 | 0 | 0 | 0 | 0 | 10 | 10 | 0 | 0 | 20 | 0 | Barnyardgrass plant response rating [13, 21]: 10; Barnyardgrass plant response rating [13, 22]: 10; Morningglory plant response rating [14, 21]: 80; Pigweed plant response rating (0 to 100 scale) [15]: 10; Pigweed plant response rating [15]: 50; Pigweed plant response rating [16, 21]: 100; Crabgrass, Large plant response rating (0 to 100 scale) [17]: 10; Crabgrass, Large plant response rating [17]: 60; Velvetleaf plant response rating [18, 21]: 20; Plant response rating, Rice [19]: 20; Barnyardgrass plant response rating (0 to 100 scale, 0 is no effect, 100 is complete control) ([20]; 125 g ai/ha, visual injury approx. 10 days after treatment): 0; Barnyardgrass plant response rating [20, 24]: 10
